The target of test [1] is PI3Kγ (p110γ) (Homo sapiens (Human), UniProt P48736). Description: PI3K-γ scintillation proximity assay. Format: biochemical. Conditions: recombinant human PI3Kγ 13 nM, 20 μM PIP2, 2 μM ATP, 120 min, room temperature. The source says:
Example B. PI3K-γ Scintillation Proximity Assay Materials: [γ-^33P]ATP (10 mCi/mL) and Wheat Germ Agglutinin (WGA) YSi SPA Scintillation Beads was purchased from Perkin Elmer (Waltham, Mass.). Lipid kinase substrate, D-myo-Phosphatidylinositol 4,5-bisphosphate (PtdIns(4,5)P2)D (+)-sn-1,2-di-O-octanoylglyceryl, 3-O-phospho linked (PIP2), CAS 204858-53-7, was purchased from Echelon Biosciences (Salt Lake City, Utah). PI3Kγ (p110γ) Recombinant Human Protein was purchased from Life technology (Grand Island, N.Y.). ATP, MgCl2, DTT, EDTA, MOPS and CHAPS were purchased from Sigma Aldrich (St. Louis, Mo.). The kinase reaction was conducted in polystyrene 384-well Greiner Bio-one white plate from Thermo Fisher Scientific in a final volume of 25 μL. Inhibitors were first diluted serially in DMSO and added to the plate wells before the addition of other reaction components. The final concentration of DMSO in the assay was 2%. The PI3Kγ assay was carried out at room temperature in 20 mM MOPS, pH 6.7, 10 mM MgCl2, 5 mM DTT and CHAPS 0.03%. Reactions were initiated by the addition of ATP, the final reaction mixture consisted of 20 μM PIP2, 2 μM ATP, 0.5 μCi [γ-^33P] ATP, 13 nM PI3Kγ. Reactions were incubated for 120 min and terminated by the addition of 40 μL SPA beads suspended in quench buffer: 163 mM potassium phosphate pH 7.8, 20% glycerol, 25 mM EDTA. The final concentration of SPA beads is 1.0 mg/mL. After the plate sealing, plates were shaken overnight at room temperature and centrifuged at 1500 rpm for 10 min, the radioactivity of the product was determined by scintillation counting on Topcount (Perkin-Elmer). IC50 determination was performed by fitting the curve of percent of the solvent control activity versus the log of the inhibitor concentration using the GraphPad Prism 6.0 software.
(In general: Scintillation proximity formats need no separation of bound from free tracer.)

Test [2] concerns the target PI3Kδ (p110δ/p85α) (Homo sapiens (Human), UniProt O00329). Nature of the test: PI3Kδ scintillation proximity assay. Format: biochemical. As to conditions: recombinant human PI3Kδ 3.4 nM, 20 μM PIP2, 2 μM ATP, 120 min, room temperature. From the text: Example C. PI3Kδ Scintillation Proximity Assay Materials: [γ-^33P]ATP (10 mCi/mL) and Wheat Germ Agglutinin (WGA) YSi SPA Scintillation Beads was purchased from Perkin Elmer (Waltham, Mass.). Lipid kinase substrate, D-myo-Phosphatidylinositol 4,5-bisphosphate (PtdIns(4,5)P2)D (+)-sn-1,2-di-O-octanoylglyceryl, 3-O-phospho linked (PIP2), CAS 204858-53-7, was purchased from Echelon Biosciences (Salt Lake City, Utah). PI3Kδ (p110δ/p85α) Recombinant Human Protein was purchased from Eurofins (St Charles, Mo.). ATP, MgCl2, DTT, EDTA, MOPS and CHAPS were purchased from Sigma Aldrich (St. Louis, Mo.). The kinase reaction was conducted in polystyrene 384-well Greiner Bio-one white plate from Thermo Fisher Scientific in a final volume of 25 μL. Inhibitors were first diluted serially in DMSO and added to the plate wells before the addition of other reaction components. The final concentration of DMSO in the assay was 2%. The PI3Kδ assay was carried out at room temperature in 20 mM MOPS, pH 6.7, 10 mM MgCl2, 5 mM DTT and CHAPS 0.03%. Reactions were initiated by the addition of ATP, the final reaction mixture consisted of 20 μM PIP2, 2 μM ATP, 0.5 μCi [γ-^33P] ATP, 3.4 nM PI3Kδ. Reactions were incubated for 120 min and terminated by the addition of 40 μL SPA beads suspended in quench buffer: 163 mM potassium phosphate pH 7.8, 20% glycerol, 25 mM EDTA. The final concentration of SPA beads is 1.0 mg/mL. After the plate sealing, plates were shaken overnight at room temperature and centrifuged at 1500 rpm for 10 min, the radioactivity of the product was determined by scintillation counting on Topcount (PerkinElmer). IC50 determination was performed by fitting the curve of percent of the solvent control activity versus the log of the inhibitor concentration using the GraphPad Prism 6.0 software.

Test [3] relates to Phosphorylated Ribosomal Protein S6 (RPS6) in THP-1 cells. Nature of the test: THP-1 RPS6 ELISA assay. In kind it is cell-based, Human. As to conditions: Homo sapiens. The procedure:
Example A. THP-1 RPS6 ELISA Assay
To measure the Phosphorylated Ribosomal Protein S6 (RPS6) in cell lysates, THP-1 cells (Human Acute Monocytic Leukemia) are purchased from ATCC (Manassas, Va.) and maintained in RPMI with 10% FBS (Gibco/Life Technologies, Carlsbad, Calif.). For the assay, THP-1 cells are serum starved overnight in RPMI, then plated in RPMI (2×10^5 cells/well in 90 μL) into 96-well flat-bottom tissue culture treated plates (Corning, Corning, N.Y.), in the presence or absence of a concentration range of test compounds. Covered plates are incubated for 2 hours at 37° C., 5% CO2 then treated with or without 10 nM MCP-1 (MYBioSource, San Diego, Calif.) for 15 minutes at 37° C., 5% CO2. Plates are centrifuged at 1600 RPM and supernatants are removed. Cells are lysed in Lysis Buffer (Cell Signaling, Danvers, Mass.) with Protease Inhibitor (Calbiochem/EMD, Germany), PMSF (Sigma, St Louis Mo.), HALTS (Thermo Fisher, Rockford, Ill.) for 30 min on wet ice. Cell lysates are frozen at −80° C. before testing. The lysates are tested in the Human/Mouse/Rat Phospho-RPS6 ELISA (R&D Systems, Inc. Minn, Minn.). The plate is measured using a microplate reader (SpectraMax M5—Molecular Devices, LLC Sunnyvale, Calif.) set to 450 nm with a wavelength correction of 540. IC50 determination is performed by fitting the curve of inhibitor percent inhibition versus the log of the inhibitor concentration using the GraphPad Prism 5.0 software.

Where [4] appears, read: THP-1, serum starved THP-1 cells, 2 hours compound, 10 nM MCP-1 for 15 minutes, Phospho-RPS6 ELISA, read-out: PI3Kγ_THP1_RPS6_ELISA IC50.

Where a name gives a salt, the structure may show the parent alone. Read-outs that look alike come from different tables or passages of the source. Where only a bound is given, the exact number is not on record here.

PI3Kδ (p110δ/p85α), sequence (O00329 whole entry): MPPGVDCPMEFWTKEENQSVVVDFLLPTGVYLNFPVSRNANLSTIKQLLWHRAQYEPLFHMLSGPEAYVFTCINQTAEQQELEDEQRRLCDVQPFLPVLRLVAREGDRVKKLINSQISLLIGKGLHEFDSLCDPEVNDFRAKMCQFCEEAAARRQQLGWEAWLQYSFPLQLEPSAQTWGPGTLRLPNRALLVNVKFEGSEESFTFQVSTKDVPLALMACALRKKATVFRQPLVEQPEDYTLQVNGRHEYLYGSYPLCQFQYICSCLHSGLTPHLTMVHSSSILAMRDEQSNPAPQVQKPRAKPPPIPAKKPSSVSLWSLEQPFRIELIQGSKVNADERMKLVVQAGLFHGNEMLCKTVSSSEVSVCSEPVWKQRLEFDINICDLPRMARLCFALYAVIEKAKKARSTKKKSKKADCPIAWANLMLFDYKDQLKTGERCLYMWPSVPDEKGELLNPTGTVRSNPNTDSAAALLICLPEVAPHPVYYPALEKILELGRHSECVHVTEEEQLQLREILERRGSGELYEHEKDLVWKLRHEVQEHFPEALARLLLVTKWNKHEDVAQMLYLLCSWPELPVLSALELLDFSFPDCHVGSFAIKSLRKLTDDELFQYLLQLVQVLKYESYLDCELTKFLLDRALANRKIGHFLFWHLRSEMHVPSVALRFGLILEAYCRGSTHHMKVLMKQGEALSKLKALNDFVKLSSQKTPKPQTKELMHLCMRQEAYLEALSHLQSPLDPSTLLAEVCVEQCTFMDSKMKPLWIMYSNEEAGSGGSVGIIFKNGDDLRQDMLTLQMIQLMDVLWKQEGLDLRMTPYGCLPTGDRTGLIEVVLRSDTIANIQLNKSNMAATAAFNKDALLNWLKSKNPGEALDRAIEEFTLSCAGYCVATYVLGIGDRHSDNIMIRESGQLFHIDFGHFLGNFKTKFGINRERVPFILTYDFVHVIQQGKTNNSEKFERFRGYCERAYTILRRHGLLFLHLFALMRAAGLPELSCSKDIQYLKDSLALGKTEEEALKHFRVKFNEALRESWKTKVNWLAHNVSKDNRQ
PI3Kδ (p110δ/p85α), sequence (P27986 whole entry partner): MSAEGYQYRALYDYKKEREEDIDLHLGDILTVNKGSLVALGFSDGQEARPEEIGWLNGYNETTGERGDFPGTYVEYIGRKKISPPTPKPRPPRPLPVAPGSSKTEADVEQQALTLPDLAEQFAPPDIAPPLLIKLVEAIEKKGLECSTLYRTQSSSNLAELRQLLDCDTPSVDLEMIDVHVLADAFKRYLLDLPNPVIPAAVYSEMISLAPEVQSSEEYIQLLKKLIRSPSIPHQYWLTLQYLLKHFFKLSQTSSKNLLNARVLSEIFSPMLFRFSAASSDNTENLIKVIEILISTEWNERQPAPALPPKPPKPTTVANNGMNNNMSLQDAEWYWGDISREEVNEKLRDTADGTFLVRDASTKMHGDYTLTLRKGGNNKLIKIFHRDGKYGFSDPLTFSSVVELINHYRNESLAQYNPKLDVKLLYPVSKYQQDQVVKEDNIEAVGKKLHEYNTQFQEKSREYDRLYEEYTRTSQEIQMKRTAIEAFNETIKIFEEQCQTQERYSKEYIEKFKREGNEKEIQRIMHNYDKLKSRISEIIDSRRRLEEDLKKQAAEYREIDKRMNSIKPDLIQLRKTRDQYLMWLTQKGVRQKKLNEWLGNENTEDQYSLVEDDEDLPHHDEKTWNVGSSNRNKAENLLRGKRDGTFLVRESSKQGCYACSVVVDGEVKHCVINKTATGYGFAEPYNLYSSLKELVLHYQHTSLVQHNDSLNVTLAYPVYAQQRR
PI3Kγ (p110γ), sequence (P48736 whole entry): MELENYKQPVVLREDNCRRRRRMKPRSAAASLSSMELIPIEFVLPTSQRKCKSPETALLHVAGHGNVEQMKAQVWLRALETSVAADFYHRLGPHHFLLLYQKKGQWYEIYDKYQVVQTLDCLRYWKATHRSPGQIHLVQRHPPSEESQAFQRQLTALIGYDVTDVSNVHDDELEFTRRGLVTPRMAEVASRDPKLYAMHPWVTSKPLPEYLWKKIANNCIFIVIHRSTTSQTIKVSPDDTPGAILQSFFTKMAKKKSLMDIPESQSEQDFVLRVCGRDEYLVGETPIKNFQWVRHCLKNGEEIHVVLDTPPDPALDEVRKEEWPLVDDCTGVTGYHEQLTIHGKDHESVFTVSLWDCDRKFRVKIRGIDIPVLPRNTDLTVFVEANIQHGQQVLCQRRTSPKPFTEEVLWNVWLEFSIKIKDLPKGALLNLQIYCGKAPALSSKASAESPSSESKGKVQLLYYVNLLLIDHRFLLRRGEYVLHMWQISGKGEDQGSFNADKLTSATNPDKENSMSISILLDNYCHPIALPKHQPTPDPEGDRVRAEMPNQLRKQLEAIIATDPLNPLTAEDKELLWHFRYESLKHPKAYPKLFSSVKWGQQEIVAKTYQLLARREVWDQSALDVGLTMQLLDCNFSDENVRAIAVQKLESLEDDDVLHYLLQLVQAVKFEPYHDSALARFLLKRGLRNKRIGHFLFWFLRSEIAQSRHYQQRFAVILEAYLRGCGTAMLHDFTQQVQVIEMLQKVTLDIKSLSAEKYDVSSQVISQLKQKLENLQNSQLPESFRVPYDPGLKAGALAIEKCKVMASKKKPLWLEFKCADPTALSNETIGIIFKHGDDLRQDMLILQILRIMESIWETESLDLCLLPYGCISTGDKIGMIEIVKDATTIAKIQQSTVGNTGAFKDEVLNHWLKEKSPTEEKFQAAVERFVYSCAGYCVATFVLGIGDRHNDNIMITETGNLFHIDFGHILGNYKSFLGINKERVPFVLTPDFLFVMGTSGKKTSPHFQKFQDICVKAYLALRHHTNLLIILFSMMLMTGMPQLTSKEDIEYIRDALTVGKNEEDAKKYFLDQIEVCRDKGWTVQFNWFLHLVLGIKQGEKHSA

Turning to `Cc1[nH]c(-c2cc(-c3ccc4c(c3)CN([C@@H](C)C3CC3)C4=O)ccn2)nc1C(=O)NC(C)C` [Example 3, (S)-2-(4-(2-(1-Cyclopropylethyl)-1-oxoisoindolin-5-yl)pyridin-2-yl)-N-isopropyl-5-methyl-1H-imidazole-4-carboxamide Trifluoroacetate Salt], the 50% inhibitory concentration (IC50) (usually the midpoint of a concentration-inhibition curve) in test [1] was < 100 nM; in test [2] it was 500 to 2000 nM; in test [3] (setting [4]), > 1000 nM.

`Cc1[nH]c(-c2cc(-c3ccc4c(c3)CN([C@@H](C)C3CC3)C4=O)ccn2)nc1C(=O)NC1CCOCC1` [Example 4, (S)-2-(4-(2-(1-Cyclopropylethyl)-1-oxoisoindolin-5-yl)pyridin-2-yl)-5-methyl-N-(tetrahydro-2H-pyran-4-yl)-1H-imidazole-4-carboxamide trifluoroacetate salt]: the half-inhibitory concentration (IC50) was < 100 nM in test [1], 500 to 2000 nM in test [2] and > 1000 nM in test [3] (setting [4]).

For `Cc1[nH]c(-c2cc(-c3ccc4c(c3)CN([C@@H](C)C3CC3)C4=O)ccn2)nc1C(=O)N(C)C` [Example 5, (S)-2-(4-(2-(1-Cyclopropylethyl)-1-oxoisoindolin-5-yl)pyridin-2-yl)-N,N,5-trimethyl-1H-imidazole-4-carboxamide trifluoroacetate salt], the 50% inhibitory concentration (IC50) in test [1] is < 100 nM; in test [2] it was > 2000 nM; in test [3] (setting [4]), > 1000 nM.

As to `CNC(=O)c1nc(-c2cc(-c3ccc4c(c3)CN([C@@H](C)C3CC3)C4=O)ccn2)[nH]c1C` [Example 6, (S)-2-(4-(2-(1-Cyclopropylethyl)-1-oxoisoindolin-5-yl)pyridin-2-yl)-N,5-dimethyl-1H-imidazole-4-carboxamide trifluoroacetate salt], the results for the half-maximal inhibitory concentration (IC50) in test [1], in test [2] and in test [3] (setting [4]) were < 100 nM, > 2000 nM and > 1000 nM, respectively.

For `CNC(=O)c1nc(-c2cc(-c3cc4c(c(S(C)(=O)=O)c3)C(=O)N([C@@H](C)C3CC3)C4)ccn2)[nH]c1C` [Example 7, (S)-2-(4-(2-(1-Cyclopropylethyl)-7-(methylsulfonyl)-1-oxoisoindolin-5-yl)pyridin-2-yl)-N,4-dimethyl-1H-imidazole-5-carboxamide, trifluoroacetate salt], the values for the IC50 in test [1], in test [2] and in test [3] (setting [4]) were < 100 nM, 500 to 2000 nM and 100 to 500 nM, respectively.

For `Cc1[nH]c(-c2cc(-c3cc4c(c(S(C)(=O)=O)c3)C(=O)N([C@@H](C)C3CC3)C4)ccn2)nc1C(=O)NC(C)C` [Example 7a, (S)-2-(4-(2-(1-Cyclopropylethyl)-7-(methylsulfonyl)-1-oxoisoindolin-5-yl)pyridin-2-yl)-N-isopropyl-4-methyl-1H-imidazole-5-carboxamide, trifluoroacetate salt], the 50% inhibitory concentration (IC50) was < 100 nM in test [1]; 100 to 500 nM in test [2]; < 100 nM in test [3] (THP-1, read-out: PI3Kγ_THP1_RPS6_ELISA IC50 (nM)).

With `Cc1[nH]c(-c2cc(-c3cc4c(c(S(C)(=O)=O)c3)C(=O)N([C@@H](C)C3CC3)C4)ccn2)nc1C(=O)NC1CCOCC1` [Example 7b, (S)-2-(4-(2-(1-Cyclopropylethyl)-7-(methylsulfonyl)-1-oxoisoindolin-5-yl)pyridin-2-yl)-4-methyl-N-(tetrahydro-2H-pyran-4-yl)-1H-imidazole-5-carboxamide, trifluoroacetate salt], the results for the 50% inhibitory concentration (IC50) in test [1], in test [2] and in test [3] (setting [4]) were < 100 nM, 100 to 500 nM and 500 to 1000 nM, respectively.

Turning to `Cc1[nH]c(-c2cc(-c3cc4c(c(S(C)(=O)=O)c3)C(=O)N([C@@H](C)C3CC3)C4)ccn2)nc1C(=O)NC12CC(C1)C2` [Example 7c, (S)-N-(Bicyclo[1.1.1]pentan-1-yl)-2-(4-(2-(1-cyclopropylethyl)-7-(methylsulfonyl)-1-oxoisoindolin-5-yl)pyridin-2-yl)-4-methyl-1H-imidazole-5-carboxamide, trifluoroacetate salt], the results for the IC50 in test [1], in test [2] and in test [3] (setting [4]) were < 100 nM, 100 to 500 nM and > 1000 nM, respectively.

With `Cc1[nH]c(-c2cc(-c3cc4c(c(S(C)(=O)=O)c3)C(=O)N([C@@H](C)C3CC3)C4)ccn2)nc1C(=O)N1CC(F)(F)C1` [Example 7d, (S)-2-(1-Cyclopropylethyl)-5-(2-(5-(3,3-difluoroazetidine-1-carbonyl)-4-methyl-1H-imidazol-2-yl)pyridin-4-yl)-7-(methylsulfonyl)isoindolin-1-one, trifluoroacetate salt], the IC50 is < 100 nM in test [1], 100 to 500 nM in test [2] and 100 to 500 nM in test [3] (setting [4]).

Regarding `Cc1[nH]c(-c2cc(-c3cc4c(c(S(C)(=O)=O)c3)C(=O)N([C@@H](C)C3CC3)C4)ccn2)nc1C(=O)N1CC(O)C1` [Example 7e, (S)-2-(1-Cyclopropylethyl)-5-(2-(5-(3-hydroxyazetidine-1-carbonyl)-4-methyl-1H-imidazol-2-yl)pyridin-4-yl)-7-(methylsulfonyl)isoindolin-1-one, trifluoroacetate salt], the IC50 is < 100 nM in test [1], 100 to 500 nM in test [2] and > 1000 nM in test [3] (setting [4]).

For the compound `Cc1[nH]c(-c2cc(-c3cc4c(c(S(C)(=O)=O)c3)C(=O)N([C@@H](C)C3CC3)C4)ccn2)nc1C(=O)NC12CCC(C#N)(C1)C2` [Example 7h, (S)-N-(4-Cyanobicyclo[2.1.1]hexan-1-yl)-2-(4-(2-(1-cyclopropylethyl)-7-(methylsulfonyl)-1-oxoisoindolin-5-yl)pyridin-2-yl)-4-methyl-1H-imidazole-5-carboxamide, trifluoroacetate salt], the IC50 in test [1] was < 100 nM; in test [2], < 100 nM; in test [3] (setting [4]), 100 to 500 nM.

`Cc1[nH]c(-c2cc(-c3cc4c(c(S(C)(=O)=O)c3)C(=O)N([C@@H](C)C3CC3)C4)ccn2)nc1C(=O)NC1CC2(COC2)C1` [Example 7i, (S)-2-(4-(2-(1-Cyclopropylethyl)-7-(methylsulfonyl)-1-oxoisoindolin-5-yl)pyridin-2-yl)-4-methyl-N-(2-oxaspiro[3.3]heptan-6-yl)-1H-imidazole-5-carboxamide, trifluoroacetate salt]: the IC50 in test [1] is < 100 nM; in test [2], < 100 nM; in test [3] (setting [4]), 100 to 500 nM.

For the origin of these results see US11396502B2, “Substituted heterocyclic derivatives as PI3K inhibitors” (Incyte Corporation, priority 2018, dated 2022).
